Reference: patent publication US9828588B2, “Methods and compositions for producing active vitamin K-dependent proteins” (The University of North Carolina at Chapel Hill, priority 2005, dated 2017)

Tested on: P450 2C9
Experiment: Average warfarin maintenance dose in patients by P450 2C9 genotype
Format: in vivo, human
Details: patients heterozygous for P450 2C9*3, n=8
Text: Subjects were obtained from the UNC Coagulation Clinic in the Ambulatory Care Center. Informed consent was obtained by a trained genetic counselor. Subjects not fluent in English were excluded because of the lack of translators and the requirement for consent.
The difference of average dose between different genotypes was compared by analysis of variance (ANOVA) using SAS version 8.0 (SAS, Inc., Cary, N.C.). A two-sided p value less than 0.05 was considered significant.
Each marker was first analyzed independently.
SAS was used first to do a repeated procedure in which a series of factors (race, gender, smoking history, hepatic diseases, SNPs at cytochrome […] gene, etc.) were examined to identify factors, excluding VKOR SNPs, which might affect dosage.

## CC(=O)CC(c1ccccc1)c1c(O)c2ccccc2oc1=O (stereo not shown) [warfarin]
  average warfarin dose: 22.4±4.34 mg per week
